Experimental data published in ChEMBL document CHEMBL1201862, “PubChem BioAssay data set” (2004).
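The compound was tested at five concentrations on cells cultured in 96-well plates, with a 48-hour exposure period. GI50: concentration for 50% inhibition of growth.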 The source made the active and inactive calls. No stated cut-off is given here; in the data, active = GI50 up to about 1.1 µM and inactive = higher.

What was measured:
Test in all cases: growth of human tumour cells (NCI), 48 h
A498 = system: A498
CAKI-1 = system: CAKI-1
DU-145 = system: DU-145
HOP-62 = system: HOP-62
Hs-578T = system: Hs-578T
LOX IMVI = system: LOX IMVI
MCF7 = system: MCF7
MDA-N = system: MDA-N
MOLT-4 = system: MOLT-4
NCI-H23 = system: NCI-H23
NCI-H460 = system: NCI-H460
OVCAR-4 = system: OVCAR-4
OVCAR-8 = system: OVCAR-8
PC-3 = system: PC-3
SF-268 = system: SF-268
SF-539 = system: SF-539
SK-MEL-28 = system: SK-MEL-28
SK-MEL-2 = system: SK-MEL-2
SR = system: SR
U-251 = system: U-251

SMILES	GI50 (A498)	GI50 (CAKI-1)	GI50 (DU-145)	GI50 (HOP-62)	GI50 (Hs-578T)	GI50 (LOX IMVI)	GI50 (MCF7)	GI50 (MDA-N)	GI50 (MOLT-4)	GI50 (NCI-H23)	GI50 (NCI-H460)	GI50 (OVCAR-4)	GI50 (OVCAR-8)	GI50 (PC-3)	GI50 (SF-268)	GI50 (SF-539)	GI50 (SK-MEL-28)	GI50 (SK-MEL-2)	GI50 (SR)	GI50 (U-251)
COC(=O)C1Cc2ccc(O)c(O)c2CN1 (stereo not given)	> 100 µM (inactive)	> 100 µM (inactive)	30.7 µM (inactive)	> 100 µM (inactive)	25.4 µM (inactive)	14.8 µM (inactive)	17.1 µM (inactive)	16.4 µM (inactive)	25.1 µM (inactive)	16.6 µM (inactive)	56.9 µM (inactive)	19.3 µM (inactive)	> 10 µM (inactive)	26.1 µM (inactive)	> 10 µM (inactive)	18.4 µM (inactive)	17.3 µM (inactive)	16.7 µM (inactive)	29.1 µM (inactive)	17.4 µM (inactive)
CN(C)/C=C/c1c2c(nc3ccccc13)C(=O)c1cccnc1C2=O	0.865 µM (active)	1.46 µM (inactive)	0.416 µM (active)	0.0579 µM (active)	1.58 µM (inactive)	< 0.01 µM (active)	0.262 µM (active)	0.54 µM (active)	2.01 µM (inactive)	0.592 µM (active)	0.109 µM (active)	0.351 µM (active)	0.407 µM (active)	0.542 µM (active)	0.41 µM (active)	0.3 µM (active)	0.552 µM (active)	1.62 µM (inactive)	0.221 µM (active)	0.353 µM (active)
NN	317 µM (inactive)	445 µM (inactive)	793 µM (inactive)	259 µM (inactive)	809 µM (inactive)	86.3 µM (inactive)	179 µM (inactive)	150 µM (inactive)	193 µM (inactive)	359 µM (inactive)	188 µM (inactive)	625 µM (inactive)	406 µM (inactive)	628 µM (inactive)	561 µM (inactive)	582 µM (inactive)	585 µM (inactive)	607 µM (inactive)	100 µM (inactive)	410 µM (inactive)
CCOP(=O)(OCC)/C(C#N)=C/c1ccnc2ccccc12	78.3 µM (inactive)	24 µM (inactive)	34.8 µM (inactive)	40.8 µM (inactive)	23.7 µM (inactive)	31.6 µM (inactive)	18.8 µM (inactive)	21.9 µM (inactive)	> 100 µM (inactive)	24.3 µM (inactive)	43.6 µM (inactive)	32.6 µM (inactive)	15 µM (inactive)	17.6 µM (inactive)	18.4 µM (inactive)	26.5 µM (inactive)	34.6 µM (inactive)	25 µM (inactive)	21.9 µM (inactive)	51.8 µM (inactive)
Cc1ccc2c(c1)nc1n2C(N)=Nc2ccccc2S1	49.1 µM (inactive)	> 100 µM (inactive)	> 69.8 µM (inactive)	> 83.4 µM (inactive)	> 73.5 µM (inactive)	3.51 µM (inactive)	> 27.2 µM (inactive)	5.78 µM (inactive)	4.66 µM (inactive)	28.7 µM (inactive)	5.92 µM (inactive)	> 100 µM (inactive)	25.5 µM (inactive)	75 µM (inactive)	48.1 µM (inactive)	> 95.5 µM (inactive)	> 100 µM (inactive)	> 100 µM (inactive)	4.7 µM (inactive)	> 27.9 µM (inactive)
COc1cc(OC)c2nc(C)c(CCCl)c(Cl)c2c1	> 100 µM (inactive)	> 100 µM (inactive)	> 100 µM (inactive)	> 100 µM (inactive)	> 100 µM (inactive)	> 100 µM (inactive)	> 100 µM (inactive)	> 100 µM (inactive)	> 100 µM (inactive)	> 100 µM (inactive)	> 100 µM (inactive)	> 100 µM (inactive)	> 100 µM (inactive)	> 100 µM (inactive)	> 100 µM (inactive)	> 100 µM (inactive)	> 100 µM (inactive)	> 100 µM (inactive)	> 100 µM (inactive)	> 100 µM (inactive)
CC(=O)Nc1cc2cc(N)ccc2oc1=O	> 100 µM (inactive)	> 100 µM (inactive)	> 100 µM (inactive)	> 100 µM (inactive)	> 100 µM (inactive)	> 100 µM (inactive)	> 100 µM (inactive)	> 100 µM (inactive)	> 100 µM (inactive)	> 100 µM (inactive)	> 100 µM (inactive)	> 100 µM (inactive)	> 100 µM (inactive)	> 100 µM (inactive)	> 100 µM (inactive)	> 100 µM (inactive)	> 100 µM (inactive)	> 100 µM (inactive)	> 100 µM (inactive)	> 100 µM (inactive)
N=C1OC(c2c[nH]c3ccc(OCc4ccccc4)cc23)C(O)=C1O (stereo not given)	59.2 µM (inactive)	> 100 µM (inactive)	> 100 µM (inactive)	> 100 µM (inactive)	> 100 µM (inactive)	> 100 µM (inactive)	> 100 µM (inactive)	> 100 µM (inactive)	> 100 µM (inactive)	> 100 µM (inactive)	> 100 µM (inactive)	> 100 µM (inactive)	> 100 µM (inactive)	> 100 µM (inactive)	> 100 µM (inactive)	> 100 µM (inactive)	> 100 µM (inactive)	> 100 µM (inactive)	> 100 µM (inactive)	> 100 µM (inactive)
O=C(O)c1cc2c(cc1CC(Cc1ccc3c(c1)CCCC3)C(=O)O)CCCC2 (stereo not given)	> 100 µM (inactive)	> 100 µM (inactive)	> 100 µM (inactive)	> 100 µM (inactive)	90.6 µM (inactive)	94.4 µM (inactive)	38.2 µM (inactive)	> 100 µM (inactive)	59.8 µM (inactive)	> 100 µM (inactive)	> 100 µM (inactive)	< 0.01 µM (active)	> 100 µM (inactive)	> 100 µM (inactive)	39.4 µM (inactive)	34.4 µM (inactive)	> 100 µM (inactive)	> 100 µM (inactive)	> 100 µM (inactive)	> 100 µM (inactive)
CC(=O)OCC1OC(N2C(C)=C(C(C)=O)C(c3ccco3)C(C#N)=C2S)C(OC(C)=O)C(OC(C)=O)C1OC(C)=O (stereo not given)	> 100 µM (inactive)	> 100 µM (inactive)	> 100 µM (inactive)	> 100 µM (inactive)	> 100 µM (inactive)	> 100 µM (inactive)	> 100 µM (inactive)	> 100 µM (inactive)	> 100 µM (inactive)	> 100 µM (inactive)	> 100 µM (inactive)	> 100 µM (inactive)	> 100 µM (inactive)	> 100 µM (inactive)	> 100 µM (inactive)	> 100 µM (inactive)	> 100 µM (inactive)	> 100 µM (inactive)	95.3 µM (inactive)	> 100 µM (inactive)
CSc1ccc(NC(=S)NN(C)C)cc1	> 10 µM (inactive)	> 10 µM (inactive)	> 10 µM (inactive)	> 10 µM (inactive)	> 10 µM (inactive)	> 10 µM (inactive)	> 10 µM (inactive)	> 10 µM (inactive)	> 10 µM (inactive)	> 10 µM (inactive)	> 10 µM (inactive)	> 10 µM (inactive)	> 10 µM (inactive)	> 10 µM (inactive)	> 10 µM (inactive)	> 10 µM (inactive)	> 10 µM (inactive)	> 10 µM (inactive)	> 10 µM (inactive)	> 10 µM (inactive)
CC1NC(=O)C2Cc3ccc(O)c(c3)Oc3ccc(cc3)C(O)C(C(=O)N2C)N(C)C(=O)C(C)NC(=O)C(Cc2ccc(O)cc2)N(C)C(=O)C(C)NC1=O (stereo not given)	> 100 µM (inactive)	> 100 µM (inactive)	32.4 µM (inactive)	34.7 µM (inactive)	5.09 µM (inactive)	5.43 µM (inactive)	13.7 µM (inactive)	13.1 µM (inactive)	19.4 µM (inactive)	29.2 µM (inactive)	31.3 µM (inactive)	35.1 µM (inactive)	24.7 µM (inactive)	23.8 µM (inactive)	4.03 µM (inactive)	6.71 µM (inactive)	19.2 µM (inactive)	8.41 µM (inactive)	10.7 µM (inactive)	9.48 µM (inactive)
CCOC(=O)c1nc2cc(F)cc(F)c2[nH]c1=O	> 100 µM (inactive)	> 100 µM (inactive)	> 100 µM (inactive)	> 100 µM (inactive)	> 100 µM (inactive)	> 100 µM (inactive)	> 100 µM (inactive)	> 100 µM (inactive)	> 100 µM (inactive)	> 100 µM (inactive)	> 100 µM (inactive)	> 100 µM (inactive)	> 100 µM (inactive)	> 100 µM (inactive)	> 100 µM (inactive)	> 100 µM (inactive)	> 100 µM (inactive)	> 100 µM (inactive)	> 100 µM (inactive)	> 100 µM (inactive)
O=C1C=CC(=O)C(CNc2ccc(C(=O)OCc3ccccc3)cc2)=C1	11.2 µM (inactive)	1.38 µM (inactive)	12.2 µM (inactive)	17.3 µM (inactive)	6.12 µM (inactive)	4.14 µM (inactive)	4.57 µM (inactive)	6.85 µM (inactive)	2 µM (inactive)	10.2 µM (inactive)	16.9 µM (inactive)	3.81 µM (inactive)	3.98 µM (inactive)	3.36 µM (inactive)	6.4 µM (inactive)	2.72 µM (inactive)	5.11 µM (inactive)	14.9 µM (inactive)	1.29 µM (inactive)	6.24 µM (inactive)
